{
  "source": "the supplement of paper PMC4862054",
  "data": [
    {"tested_on": "HCC1143", "assay": "normalised response (% of control), CellTiter-Glo; higher = more viable cells (100 = DMSO, 0 = benzethonium chloride kill control)", "settings": "incubation time: 72 h", "in_short": "(§1)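 Each value is the plate-normalised signal at one concentration of the series. Breast cancer cell lines (20 µl suspension) were incubated 72 h in 384-well plates with compound at 5 concentrations in 10-fold steps over a compound-specific 10,000-fold range. CellTox Green and then CellTiter-Glo were read, and each plate was scaled to 0.1 % DMSO (100) and a positive kill control (0).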", "units": {"normalised response": "%"}, "values": [
      {"smiles": "C[C@H]1C[C@@H]2[C@H]([C@@H](O)C[C@@]3(C)[C@H]2CC[C@]3(O)C(=O)CO)[C@@]2(C)C=CC(=O)C=C12", "note": "[Methylprednisolone] (10 nM)", "normalised response": 104},
      {"smiles": "CC[C@@H]1C(=O)N(C)c2cnc(Nc3ccc(C(=O)NC4CCN(C)CC4)cc3OC)nc2N1C1CCCC1", "note": "[BI 2536] (1 nM)", "normalised response": 100},
      {"smiles": "COc1cc2c(NC3CCN(C(C)C)CC3)nc(C3CCCCC3)nc2cc1OCCCN1CCCC1", "note": "[UNC0638] (10 nM)", "normalised response": 102},
      {"smiles": "C=CCc1cccc(/C=N/NC(=O)CN2CCN(Cc3ccccc3)CC2)c1O", "note": "[PAC-1] (10 nM)", "normalised response": 100},
      {"smiles": "O=C(O)CCCCC(CCSCc1ccccc1)SCc1ccccc1", "note": "(configuration not stated) [CPI-613] (10 nM)", "normalised response": 108}
    ]},
    {"tested_on": "SK-BR-3", "assay": "normalised response (% of control), CellTiter-Glo; higher = more viable cells (100 = DMSO, 0 = benzethonium chloride kill control)", "settings": "incubation time: 72 h", "in_short": "as §1", "units": {"normalised response": "%"}, "values": [
      {"smiles": "COc1cc2c(Oc3ccc4[nH]c(C)cc4c3F)ncnc2cc1OCCCN1CCCC1", "note": "[Cediranib] (1 nM)", "normalised response": 99.8},
      {"smiles": "COc1cc2c(Oc3ccc4[nH]c(C)cc4c3F)ncnc2cc1OCCCN1CCCC1", "note": "[Cediranib] (0.1 nM)", "normalised response": 106},
      {"smiles": "O=C(O)CCCCC(CCSCc1ccccc1)SCc1ccccc1", "note": "(configuration not stated) [CPI-613] (1 nM)", "normalised response": 114},
      {"smiles": "CC[C@H](C)C(=O)O[C@H]1C[C@H](O)C=C2C=C[C@H](C)[C@H](CC[C@@H](O)C[C@@H](O)CC(=O)O)[C@H]21", "note": "[Pravastatin] (1 nM)", "normalised response": 94.2},
      {"smiles": "C=CCc1cccc(/C=N/NC(=O)CN2CCN(Cc3ccccc3)CC2)c1O", "note": "[PAC-1] (1 nM)", "normalised response": 109},
      {"smiles": "C[C@H]1C[C@@H]2[C@H]([C@@H](O)C[C@@]3(C)[C@H]2CC[C@]3(O)C(=O)CO)[C@@]2(C)C=CC(=O)C=C12", "note": "[Methylprednisolone] (10 nM)", "normalised response": 109},
      {"smiles": "CC[C@@H]1C(=O)N(C)c2cnc(Nc3ccc(C(=O)NC4CCN(C)CC4)cc3OC)nc2N1C1CCCC1", "note": "[BI 2536] (1 nM)", "normalised response": 97.2},
      {"smiles": "COc1cc2c(NC3CCN(C(C)C)CC3)nc(C3CCCCC3)nc2cc1OCCCN1CCCC1", "note": "[UNC0638] (10 nM)", "normalised response": 85.9},
      {"smiles": "C=CCc1cccc(/C=N/NC(=O)CN2CCN(Cc3ccccc3)CC2)c1O", "note": "[PAC-1] (10 nM)", "normalised response": 107},
      {"smiles": "O=C(O)CCCCC(CCSCc1ccccc1)SCc1ccccc1", "note": "(configuration not stated) [CPI-613] (10 nM)", "normalised response": 109}
    ]},
    {"tested_on": "CAL-85-1", "assay": "normalised response (% of control), CellTiter-Glo; higher = more viable cells (100 = DMSO, 0 = benzethonium chloride kill control)", "settings": "incubation time: 72 h", "in_short": "as §1", "units": {"normalised response": "%"}, "values": [
      {"smiles": "COc1cc2c(Oc3ccc4[nH]c(C)cc4c3F)ncnc2cc1OCCCN1CCCC1", "note": "[Cediranib] (1 nM)", "normalised response": 109},
      {"smiles": "COc1cc2c(Oc3ccc4[nH]c(C)cc4c3F)ncnc2cc1OCCCN1CCCC1", "note": "[Cediranib] (0.1 nM)", "normalised response": 101},
      {"smiles": "O=C(O)CCCCC(CCSCc1ccccc1)SCc1ccccc1", "note": "(configuration not stated) [CPI-613] (1 nM)", "normalised response": 99.2},
      {"smiles": "CC[C@H](C)C(=O)O[C@H]1C[C@H](O)C=C2C=C[C@H](C)[C@H](CC[C@@H](O)C[C@@H](O)CC(=O)O)[C@H]21", "note": "[Pravastatin] (1 nM)", "normalised response": 92.6},
      {"smiles": "C=CCc1cccc(/C=N/NC(=O)CN2CCN(Cc3ccccc3)CC2)c1O", "note": "[PAC-1] (1 nM)", "normalised response": 99.7},
      {"smiles": "C[C@H]1C[C@@H]2[C@H]([C@@H](O)C[C@@]3(C)[C@H]2CC[C@]3(O)C(=O)CO)[C@@]2(C)C=CC(=O)C=C12", "note": "[Methylprednisolone] (10 nM)", "normalised response": 112},
      {"smiles": "CC[C@@H]1C(=O)N(C)c2cnc(Nc3ccc(C(=O)NC4CCN(C)CC4)cc3OC)nc2N1C1CCCC1", "note": "[BI 2536] (1 nM)", "normalised response": 100},
      {"smiles": "COc1cc2c(NC3CCN(C(C)C)CC3)nc(C3CCCCC3)nc2cc1OCCCN1CCCC1", "note": "[UNC0638] (10 nM)", "normalised response": 93.3},
      {"smiles": "C=CCc1cccc(/C=N/NC(=O)CN2CCN(Cc3ccccc3)CC2)c1O", "note": "[PAC-1] (10 nM)", "normalised response": 100},
      {"smiles": "O=C(O)CCCCC(CCSCc1ccccc1)SCc1ccccc1", "note": "(configuration not stated) [CPI-613] (10 nM)", "normalised response": 97.8}
    ]},
    {"tested_on": "MDA-MB-453", "assay": "normalised response (% of control), CellTiter-Glo; higher = more viable cells (100 = DMSO, 0 = benzethonium chloride kill control)", "settings": "incubation time: 72 h", "in_short": "as §1", "units": {"normalised response": "%"}, "values": [
      {"smiles": "COc1cc2c(Oc3ccc4[nH]c(C)cc4c3F)ncnc2cc1OCCCN1CCCC1", "note": "[Cediranib] (1 nM)", "normalised response": 99.7},
      {"smiles": "COc1cc2c(Oc3ccc4[nH]c(C)cc4c3F)ncnc2cc1OCCCN1CCCC1", "note": "[Cediranib] (0.1 nM)", "normalised response": 107},
      {"smiles": "O=C(O)CCCCC(CCSCc1ccccc1)SCc1ccccc1", "note": "(configuration not stated) [CPI-613] (1 nM)", "normalised response": 107},
      {"smiles": "CC[C@H](C)C(=O)O[C@H]1C[C@H](O)C=C2C=C[C@H](C)[C@H](CC[C@@H](O)C[C@@H](O)CC(=O)O)[C@H]21", "note": "[Pravastatin] (1 nM)", "normalised response": 99.8},
      {"smiles": "C=CCc1cccc(/C=N/NC(=O)CN2CCN(Cc3ccccc3)CC2)c1O", "note": "[PAC-1] (1 nM)", "normalised response": 103},
      {"smiles": "C[C@H]1C[C@@H]2[C@H]([C@@H](O)C[C@@]3(C)[C@H]2CC[C@]3(O)C(=O)CO)[C@@]2(C)C=CC(=O)C=C12", "note": "[Methylprednisolone] (10 nM)", "normalised response": 108},
      {"smiles": "CC[C@@H]1C(=O)N(C)c2cnc(Nc3ccc(C(=O)NC4CCN(C)CC4)cc3OC)nc2N1C1CCCC1", "note": "[BI 2536] (1 nM)", "normalised response": 84.6},
      {"smiles": "COc1cc2c(NC3CCN(C(C)C)CC3)nc(C3CCCCC3)nc2cc1OCCCN1CCCC1", "note": "[UNC0638] (10 nM)", "normalised response": 85.3},
      {"smiles": "C=CCc1cccc(/C=N/NC(=O)CN2CCN(Cc3ccccc3)CC2)c1O", "note": "[PAC-1] (10 nM)", "normalised response": 104},
      {"smiles": "O=C(O)CCCCC(CCSCc1ccccc1)SCc1ccccc1", "note": "(configuration not stated) [CPI-613] (10 nM)", "normalised response": 105}
    ]},
    {"tested_on": "CAL-120", "assay": "normalised response (% of control), CellTiter-Glo; higher = more viable cells (100 = DMSO, 0 = benzethonium chloride kill control)", "settings": "incubation time: 72 h", "in_short": "as §1", "units": {"normalised response": "%"}, "values": [
      {"smiles": "COc1cc2c(Oc3ccc4[nH]c(C)cc4c3F)ncnc2cc1OCCCN1CCCC1", "note": "[Cediranib] (1 nM)", "normalised response": 105},
      {"smiles": "COc1cc2c(Oc3ccc4[nH]c(C)cc4c3F)ncnc2cc1OCCCN1CCCC1", "note": "[Cediranib] (0.1 nM)", "normalised response": 101},
      {"smiles": "O=C(O)CCCCC(CCSCc1ccccc1)SCc1ccccc1", "note": "(configuration not stated) [CPI-613] (1 nM)", "normalised response": 96.3},
      {"smiles": "CC[C@H](C)C(=O)O[C@H]1C[C@H](O)C=C2C=C[C@H](C)[C@H](CC[C@@H](O)C[C@@H](O)CC(=O)O)[C@H]21", "note": "[Pravastatin] (1 nM)", "normalised response": 101},
      {"smiles": "C=CCc1cccc(/C=N/NC(=O)CN2CCN(Cc3ccccc3)CC2)c1O", "note": "[PAC-1] (1 nM)", "normalised response": 96.8},
      {"smiles": "C[C@H]1C[C@@H]2[C@H]([C@@H](O)C[C@@]3(C)[C@H]2CC[C@]3(O)C(=O)CO)[C@@]2(C)C=CC(=O)C=C12", "note": "[Methylprednisolone] (10 nM)", "normalised response": 96.2},
      {"smiles": "CC[C@@H]1C(=O)N(C)c2cnc(Nc3ccc(C(=O)NC4CCN(C)CC4)cc3OC)nc2N1C1CCCC1", "note": "[BI 2536] (1 nM)", "normalised response": 97.2},
      {"smiles": "COc1cc2c(NC3CCN(C(C)C)CC3)nc(C3CCCCC3)nc2cc1OCCCN1CCCC1", "note": "[UNC0638] (10 nM)", "normalised response": 98},
      {"smiles": "C=CCc1cccc(/C=N/NC(=O)CN2CCN(Cc3ccccc3)CC2)c1O", "note": "[PAC-1] (10 nM)", "normalised response": 94.6},
      {"smiles": "O=C(O)CCCCC(CCSCc1ccccc1)SCc1ccccc1", "note": "(configuration not stated) [CPI-613] (10 nM)", "normalised response": 98.7}
    ]},
    {"tested_on": "MDA-MB-468", "assay": "normalised response (% of control), CellTiter-Glo; higher = more viable cells (100 = DMSO, 0 = benzethonium chloride kill control)", "settings": "incubation time: 72 h", "in_short": "as §1", "units": {"normalised response": "%"}, "values": [
      {"smiles": "COc1cc2c(Oc3ccc4[nH]c(C)cc4c3F)ncnc2cc1OCCCN1CCCC1", "note": "[Cediranib] (1 nM)", "normalised response": 113},
      {"smiles": "COc1cc2c(Oc3ccc4[nH]c(C)cc4c3F)ncnc2cc1OCCCN1CCCC1", "note": "[Cediranib] (0.1 nM)", "normalised response": 110}
    ]}
  ]
}
